PubChem BioAssay AID260 (DTP/NCI, 2004)
Values joined by “and” are separate entries in the source; they are usually repeats but may differ in a detail not shown here. Equal entries are not always repeated. Toxic doses and inconclusive results are not listed.

Test system: CD2F1 mice, intracerebral L1210 leukemia, survival T/C
Experiment: NCI In Vivo Anticancer Drug Screen. Data for tumor model L1210 Leukemia (intracerebral) in CD2F1 (CDF1) mice
Conditions: higher = longer survival
Protocol: The antitumor activity of compounds was measured in mice bearing transplantable tumors. Survival or tumor size were measured and the results are expressed as the measurement made in the treated group (T) divided by the measurement made in the vehicle treated control group (C). The tumor model used in this assay is L1210 Leukemia (intracerebral) in CD2F1 (CDF1) mice

[1] = endpoint: median survival time, dose: 8.0 mg/kg/injection, schedule: Q01DX005 (ip), vehicle: saline with Tween-80
[2] = endpoint: median survival time, dose: 16.0 mg/kg/injection, schedule: Q01DX005 (ip), vehicle: saline with Tween-80
[3] = endpoint: median survival time, dose: 32.0 mg/kg/injection, schedule: Q01DX005 (ip), vehicle: saline with Tween-80
[4] = endpoint: median survival time, dose: 4.0 mg/kg/injection, schedule: Q01DX005 (ip), vehicle: saline
[5] = endpoint: median survival time, dose: 8.0 mg/kg/injection, schedule: Q01DX005 (ip), vehicle: saline
[6] = endpoint: median survival time, dose: 16.0 mg/kg/injection, schedule: Q01DX005 (ip), vehicle: saline
[7] = endpoint: median survival time, dose: 32.0 mg/kg/injection, schedule: Q01DX005 (ip), vehicle: saline
[8] = endpoint: median survival time, dose: 100.0 mg/kg/injection, schedule: Q01DX005 (ip), vehicle: Klucel (hydroxypropylcellulose) (HPC)
[9] = endpoint: median survival time, dose: 200.0 mg/kg/injection, schedule: Q01DX005 (ip), vehicle: Klucel (hydroxypropylcellulose) (HPC)
[10] = endpoint: median survival time, dose: 64.0 mg/kg/injection, schedule: Q01DX005 (ip), vehicle: saline with Tween-80
[11] = endpoint: median survival time, dose: 128.0 mg/kg/injection, schedule: Q01DX005 (ip), vehicle: saline with Tween-80

O=P1(N(CCCl)CCCl)NC(OO)CCO1 (centres undefined)
T/C (endpoint: median survival time, dose: 40.0 mg/kg/injection, schedule: Q01DX001 (ip), vehicle: saline): 100 % of control | T/C (endpoint: median survival time, dose: 80.0 mg/kg/injection, schedule: Q01DX001 (ip), vehicle: saline): 102 % of control | T/C (endpoint: median survival time, dose: 160.0 mg/kg/injection, schedule: Q01DX001 (ip), vehicle: saline): 103 % of control

COC(=O)C(Cc1ccc(N(CCCl)CCCl)cc1)N=NNc1nc[nH]c1C(N)=O (centres undefined)
T/C [1]: 95 % of control | T/C [2]: 115 % of control | T/C [3]: 95 % of control

N#[N+]c1nc[nH]c1C(N)=O
T/C (endpoint: median survival time, dose: 2.0 mg/kg/injection, schedule: Q01DX005 (ip), vehicle: saline): 112 % of control | T/C [4]: 105 % of control | T/C [5]: 107 % of control | T/C [6]: 105 % of control | T/C [7]: 105 % of control | T/C (endpoint: median survival time, dose: 64.0 mg/kg/injection, schedule: Q01DX005 (ip), vehicle: saline): 101 % of control

O=C1c2c(O)ccc(O)c2C(=O)c2c(NCCNCCO)ccc(NCCNCCO)c21
T/C (endpoint: median survival time, dose: 0.5 mg/kg/injection, schedule: Q01DX009 (ip), vehicle: saline with Tween-80): 122 % of control and 110 % of control | T/C (endpoint: median survival time, dose: 1.0 mg/kg/injection, schedule: Q01DX009 (ip), vehicle: saline with Tween-80): 120 % of control | T/C (endpoint: median survival time, dose: 2.0 mg/kg/injection, schedule: Q01DX009 (ip), vehicle: saline with Tween-80): 121 % of control | T/C (endpoint: median survival time, dose: 4.0 mg/kg/injection, schedule: Q01DX009 (ip), vehicle: saline with Tween-80): 105 % of control and 106 % of control

CN(C)CC(=O)c1ccc(O)c(O)c1
T/C (endpoint: median survival time, dose: 100.0 mg/kg/injection, schedule: Q01DX005 (ip), vehicle: saline): 95 % of control and 107 % of control | T/C (endpoint: median survival time, dose: 200.0 mg/kg/injection, schedule: Q01DX005 (ip), vehicle: saline): 109 % of control | T/C (endpoint: median survival time, dose: 400.0 mg/kg/injection, schedule: Q01DX005 (ip), vehicle: saline): 290 % of control and 103 % of control | T/C (endpoint: median survival time, dose: 800.0 mg/kg/injection, schedule: Q01DX005 (ip), vehicle: saline): 88 % of control and 110 % of control

COc1ccc2cc1Oc1ccc(cc1)C[C@H]1c3cc(c(OC)cc3CCN1C)Oc1c(OC)c(OC)cc3c1[C@H](C2)N(C)CC3
T/C (endpoint: median survival time, dose: 50.0 mg/kg/injection, schedule: Q01DX005 (ip), vehicle: Klucel (hydroxypropylcellulose) (HPC)): 90 % of control and 91 % of control | T/C [8]: 95 % of control and 98 % of control | T/C [9]: 95 % of control and 104 % of control | T/C (endpoint: median survival time, dose: 400.0 mg/kg/injection, schedule: Q01DX005 (ip), vehicle: Klucel (hydroxypropylcellulose) (HPC)): 101 % of control

CCC1=C(c2ccc(OC)cc2)CCC(C(=O)O)C1C (centres undefined)
T/C [4]: 103 % of control | T/C (endpoint: median survival time, dose: 4.0 mg/kg/injection, schedule: Q01DX005 (ip), vehicle: suspension in saline): 102 % of control | T/C [5]: 114 % of control | T/C (endpoint: median survival time, dose: 8.0 mg/kg/injection, schedule: Q01DX005 (ip), vehicle: suspension in saline): 102 % of control | T/C [6]: 112 % of control | T/C (endpoint: median survival time, dose: 16.0 mg/kg/injection, schedule: Q01DX005 (ip), vehicle: suspension in saline): 96 % of control | T/C [7]: 102 % of control | T/C (endpoint: median survival time, dose: 32.0 mg/kg/injection, schedule: Q01DX005 (ip), vehicle: suspension in saline): 104 % of control

N[C@H](C(=O)O)[C@H]1ON=C(Cl)[C@@H]1O
T/C (endpoint: mean survival time, dose: 256.0 mg/kg/injection, schedule: Q01DX009 (ip), vehicle: saline): 118 % of control | T/C (endpoint: mean survival time, dose: 512.0 mg/kg/injection, schedule: Q01DX009 (ip), vehicle: saline): 98 % of control | T/C (endpoint: mean survival time, dose: 1024.0 mg/kg/injection, schedule: Q01DX009 (ip), vehicle: saline): 98 % of control

CC(=O)NNC(=O)c1ccccn1
T/C [8]: 103 % of control | T/C [9]: 105 % of control

CN(C)N=Nc1ccccc1
T/C (endpoint: mean survival time, dose: 6.25 mg/kg/injection, schedule: Q01DX009 (ip), vehicle: Klucel (hydroxypropylcellulose) (HPC)): 101 % of control and 104 % of control and 112 % of control | T/C (endpoint: mean survival time, dose: 12.5 mg/kg/injection, schedule: Q01DX009 (ip), vehicle: Klucel (hydroxypropylcellulose) (HPC)): 109 % of control and 112 % of control and 113 % of control | T/C (endpoint: mean survival time, dose: 25.0 mg/kg/injection, schedule: Q01DX009 (ip), vehicle: Klucel (hydroxypropylcellulose) (HPC)): 118 % of control | T/C (endpoint: mean survival time, dose: 50.0 mg/kg/injection, schedule: Q01DX009 (ip), vehicle: Klucel (hydroxypropylcellulose) (HPC)): 120 % of control and 107 % of control and 115 % of control

O=C(Nc1ccccc1)c1c(O)[nH]c(=S)[nH]c1=O
T/C (endpoint: median survival time, dose: 12.5 mg/kg/injection, schedule: Q01DX009 (ip), vehicle: saline with Tween-80): 94 % of control | T/C (endpoint: median survival time, dose: 25.0 mg/kg/injection, schedule: Q01DX009 (ip), vehicle: saline with Tween-80): 98 % of control | T/C (endpoint: median survival time, dose: 50.0 mg/kg/injection, schedule: Q01DX009 (ip), vehicle: saline with Tween-80): 113 % of control

Nc1ncn(C2OC(CO)C(O)C2O)c(=O)n1 (centres undefined)
T/C (endpoint: mean survival time, dose: 0.75 mg/kg/injection, schedule: Q01DX009 (ip), vehicle: saline): 116 % of control | T/C (endpoint: mean survival time, dose: 1.5 mg/kg/injection, schedule: Q01DX009 (ip), vehicle: saline): 116 % of control | T/C (endpoint: mean survival time, dose: 3.0 mg/kg/injection, schedule: Q01DX009 (ip), vehicle: saline): 120 % of control | T/C (endpoint: median survival time, dose: 0.28 mg/kg/injection, schedule: Q03HX024 (ip), vehicle: saline): 100 % of control | T/C (endpoint: median survival time, dose: 0.5 mg/kg/injection, schedule: Q01DX005 (ip), vehicle: water): 103 % of control | T/C (endpoint: median survival time, dose: 0.59 mg/kg/injection, schedule: Q03HX024 (ip), vehicle: saline): 151 % of control | T/C (endpoint: median survival time, dose: 1.0 mg/kg/injection, schedule: Q01DX005 (ip), vehicle: water): 103 % of control | T/C (endpoint: median survival time, dose: 1.17 mg/kg/injection, schedule: Q03HX024 (ip), vehicle: saline): 261 % of control | T/C (endpoint: median survival time, dose: 2.0 mg/kg/injection, schedule: Q01DX005 (ip), vehicle: water): 114 % of control | T/C (endpoint: median survival time, dose: 2.25 mg/kg/injection, schedule: Q03HX024 (ip), vehicle: saline): 170 % of control | T/C (endpoint: median survival time, dose: 2.34 mg/kg/injection, schedule: Q03HX024 (ip), vehicle: saline): 293 % of control | T/C (endpoint: median survival time, dose: 3.12 mg/kg/injection, schedule: Q01DX009 (ip), vehicle: saline): 213 % of control | T/C (endpoint: median survival time, dose: 4.5 mg/kg/injection, schedule: Q03HX024 (ip), vehicle: saline): 113 % of control | T/C (endpoint: median survival time, dose: 4.69 mg/kg/injection, schedule: Q03HX024 (ip), vehicle: saline): 363 % of control | T/C (endpoint: median survival time, dose: 6.0 mg/kg/injection, schedule: Q01DX009 (ip), vehicle: saline): 173 % of control | T/C (endpoint: median survival time, dose: 6.25 mg/kg/injection, schedule: Q01DX009 (ip), vehicle: saline): 214 % of control | T/C (endpoint: median survival time, dose: 8.0 mg/kg/injection, schedule: Q01DX005 (ip), vehicle: water): 98 % of control | T/C (endpoint: median survival time, dose: 9.38 mg/kg/injection, schedule: Q03HX024 (ip), vehicle: saline): 681 % of control | T/C (endpoint: median survival time, dose: 12.0 mg/kg/injection, schedule: Q01DX009 (ip), vehicle: saline): 102 % of control | T/C (endpoint: median survival time, dose: 12.5 mg/kg/injection, schedule: Q01DX009 (ip), vehicle: saline): 250 % of control and 284 % of control and 325 % of control | T/C (endpoint: median survival time, dose: 18.75 mg/kg/injection, schedule: Q03HX024 (ip), vehicle: saline): 681 % of control | T/C (endpoint: median survival time, dose: 25.0 mg/kg/injection, schedule: Q01DX009 (ip), vehicle: saline): 298 % of control and 300 % of control and 348 % of control | T/C (endpoint: median survival time, dose: 50.0 mg/kg/injection, schedule: Q01DX009 (ip), vehicle: saline): 290 % of control and 295 % of control and 334 % of control | T/C (endpoint: median survival time, dose: 75.0 mg/kg/injection, schedule: Q03HX024 (ip), vehicle: saline): 98 % of control | T/C (endpoint: median survival time, dose: 100.0 mg/kg/injection, schedule: Q01DX009 (ip), vehicle: saline): 348 % of control and 378 % of control and 386 % of control | T/C (endpoint: median survival time, dose: 200.0 mg/kg/injection, schedule: Q01DX009 (ip), vehicle: saline): 151 % of control and 209 % of control | T/C (endpoint: median survival time, dose: 400.0 mg/kg/injection, schedule: Q01DX009 (ip), vehicle: saline): 181 % of control

CN(N=O)C(=O)Nc1c[nH]c(=O)[nH]c1=O
T/C [1]: 100 % of control | T/C [2]: 103 % of control | T/C [3]: 100 % of control | T/C [10]: 110 % of control | T/C [11]: 119 % of control

CN=NNc1nc[nH]c1C(N)=O
T/C [2]: 107 % of control | T/C [3]: 101 % of control | T/C [10]: 112 % of control | T/C [11]: 107 % of control | T/C (endpoint: median survival time, dose: 256.0 mg/kg/injection, schedule: Q01DX005 (ip), vehicle: saline with Tween-80): 86 % of control

CCN(CC)c1ccc2cc3ccc(=[N+](CC)CC)cc-3oc2c1
T/C [4]: 104 % of control | T/C [5]: 98 % of control | T/C [6]: 105 % of control and 113 % of control
